Assay results: patent US9597407B2, “Targeted antimicrobial moieties” (C3 Jian, Inc., priority 2009, dated 2017)
Entries after “also recorded” stand apart in the source; their conditions may differ.

Key:
microorganisms [1] = experiment: Morphology, biofilm and growth disruption by peptides (Table 5); type: cell-based; set-up: key: A: Peptide aggregates; B: Less hyphal formation; Clumps; Diffuse clumps and small polyps; F: Diffuse growth; H: Thin; I: Growth inhibition; Microcolony formation; Rippled; Small polyps; Thick; W: Halo formation on top, microlonies on bottom
Excerpt: In certain embodiments peptides that induce alterations in phenotype or other biological activities can also be used as antimicrobial effector moieties.

bacteria = experiment: Binding of targeting peptides to microorganisms (Table 3); settings: preferably 1x PBS; for Target(s): microorganism bound by the targeting peptide, binding in aqueous buffers chosen by peptide solubility; for Target(s) (microorganisms bound by the targeting peptide): peptide binding in aqueous buffers that varied depending on peptide solubility
microorganisms [2] = experiment: Peptide activities: binding, antimicrobial, growth or phenotype altering (Table 8)
Excerpt: In certain embodiments, peptides described herein can have multiple activities. Thus for example, a peptide can have both binding/targeting activity and antimicrobial activity. Such peptides can be used, e.g., in a chimeric construct, for any or all of these properties. Thus, for example, a peptide designated “B” in Table 8 can be used as a targeting peptide. If it is also designated G or M it can also be used for antimicrobial activity.

Row | Substance | Target(s) (bacteria) | Activities (microorganisms [2]) | Organism, effect (microorganisms [1]; E. coli) | Organism, effect (microorganisms [1]; MRSA) | Organism, effect (microorganisms [1]; S. epidermidis) | Organism, effect (microorganisms [1]; E. faecalis) | Target(s) (microorganisms bound by the targeting peptide) (bacteria) | further results
1 | PF-289 (MGRHLWNPSYFVATVSENTEEQIRKYRKNK; Peptide with targeting and/or antimicrobial activity) | C. difficile | G B |  |  |  |  |  | Organism, effect (microorganisms [1]; B. subtilis): B. subtilis (C)
2 | PF-360 (MEQKVKVIFVPRSKPDNQLKTFVSAVLFKA; Peptide with targeting and/or antimicrobial activity) | S. epidermidis; also recorded: B. subtilis; also recorded: E. coli; also recorded: P. aeruginosa; also recorded: C. albicans; also recorded: E. faecalis; also recorded: C. jeikeium; also recorded: C. jejuni | G B | E. coli (C) | MRSA (H) | S. epidermidis (S) |  |  | 
3 | PF-362 (NIERILKEKVWMIRCVE; Peptide with targeting and/or antimicrobial activity) | S. epidermidis; also recorded: E. coli; also recorded: P. aeruginosa; also recorded: C. albicans; also recorded: E. faecalis; also recorded: C. jejuni | G B | E. coli (C) | MRSA (C) |  |  |  | 
4 | PF-363 (SMLSVTVMCLMHASVAANQAMEKKV; Peptide with targeting and/or antimicrobial activity) | B. subtilis; also recorded: E. coli; also recorded: P. aeruginosa; also recorded: C. albicans; also recorded: S. pneumoniae; also recorded: E. faecalis | G B | E. coli (C) | MRSA (H) | S. epidermidis (S) | E. faecalis (D) |  | Organism, effect (microorganisms [1]; C. jejuni): C. jejuni (D); Organism, effect (microorganisms [1]; S. pneumoniae): S. pneumoniae (R)
5 | PF-369 (MSEAVNLLRGARYSQRYAKNQVPYEVIIEK; Peptide with targeting and/or antimicrobial activity) | B. subtilis; also recorded: B. fragilis; also recorded: E. coli; also recorded: P. aeruginosa; also recorded: C. albicans; also recorded: S. pneumoniae; also recorded: C. jeikeium; also recorded: C. jejuni | G B | E. coli (R) | MRSA (H) | S. epidermidis (S) | E. faecalis (C) |  | 
6 | PF-370 (VIFLHKESGNLKEIFY; Peptide with targeting and/or antimicrobial activity) | S. epidermidis; also recorded: E. coli; also recorded: P. aeruginosa; also recorded: E. faecalis; also recorded: C. jejuni | G B | E. coli (R) | MRSA (C) | S. epidermidis (C) |  |  | 
7 | PF-373 (HFYLLFER; Peptide with targeting and/or antimicrobial activity) | S. epidermidis and E. coli and P. aeruginosa and C. albicans and MRSA and E. faecalis and C. jejuni | G B |  | MRSA (M) | S. epidermidis (M) |  |  | 
8 | PF-378 (ESAKSNLNFLMQEEWALFLLL; Peptide with targeting and/or antimicrobial activity) | B. subtilis; also recorded: B. fragilis; also recorded: E. coli; also recorded: P. aeruginosa; also recorded: C. jeikeium | G B |  | MRSA (M) | S. epidermidis (M) |  |  | 
9 | PF-381 (QGANPCQQVGFTVNDPDCRLAKTV; Peptide with targeting and/or antimicrobial activity) | E. coli; also recorded: P. aeruginosa; also recorded: C. jejuni | G B | E. coli (R) | MRSA (C) | S. epidermidis (C) | E. faecalis (C) |  | 
10 | PF-382 (KYKCSWCKRVYTLRKDHKTAR; Peptide with targeting and/or antimicrobial activity) | S. epidermidis; also recorded: B. subtilis; also recorded: B. fragilis; also recorded: E. coli; also recorded: P. aeruginosa; also recorded: E. faecalis; also recorded: C. jeikeium; also recorded: C. jejuni | G B |  | MRSA (M) |  |  |  | 
11 | PF-383 (WSEIEINTKQSN; Peptide with targeting and/or antimicrobial activity) | S. epidermidis; also recorded: B. subtilis; also recorded: B. fragilis; also recorded: E. coli; also recorded: C. jejuni | G B | E. coli (R) |  | S. epidermidis (C) |  |  | 
12 | PF-385 (MIKKSILKIKYYVPVLISLTLILSA; Peptide with targeting and/or antimicrobial activity) |  | G B | E. coli (A) |  |  |  | S. epidermidis; also recorded: E. coli; also recorded: P. aeruginosa; also recorded: C. albicans; also recorded: E. faecalis | 
13 | PF-389 (GLQFKEIAEEFHITTTALQQWHKDNGYPIYNKNNRK; Peptide with targeting and/or antimicrobial activity) |  | G B |  | MRSA (C) | S. epidermidis (R) | E. faecalis (R) | S. epidermidis and C. albicans and MRSA and S. pneumoniae and E. faecalis and C. jeikeium | Organism, effect (microorganisms [1]; C. jejuni): C. jejuni (R); Organism, effect (microorganisms [1]; S. pneumoniae): S. pneumoniae (D)
14 | PF-390 (VVAYVITQVGAIRF; Peptide with targeting and/or antimicrobial activity) |  | G B | E. coli (C) | MRSA (D) | S. epidermidis (D) | E. faecalis (D) | S. epidermidis and P. aeruginosa and C. albicans and MRSA | Organism, effect (microorganisms [1]; C. jejuni): C. jejuni (D); Organism, effect (microorganisms [1]; S. pneumoniae): S. pneumoniae (D)
15 | PF-392 (DPAGCNDIVRKYCK; Peptide with targeting and/or antimicrobial activity) |  | G B |  | MRSA (S) |  | E. faecalis (A) | S. epidermidis; also recorded: B. subtilis; also recorded: S. pneumoniae; also recorded: C. jeikeium; also recorded: C. jejuni | Organism, effect (microorganisms [1]; C. jejuni): C. jejuni (A)
16 | PF-393 (DLVQSILSEFKKSG; Peptide with targeting and/or antimicrobial activity) |  | G B |  | MRSA (C) | S. epidermidis (R) | E. faecalis (A) | S. epidermidis and E. coli and C. albicans and MRSA and S. pneumoniae and C. jejuni | Organism, effect (microorganisms [1]; C. jejuni): C. jejuni (R); Organism, effect (microorganisms [1]; S. pneumoniae): S. pneumoniae (R)
17 | PF-394 (VLKEECYQKN; Peptide with targeting and/or antimicrobial activity) |  | G B |  | MRSA (C) |  | E. faecalis (A) | S. epidermidis and MRSA and C. jejuni | 
18 | PF-422 (MSRKKYENDEKSQKKLKIGRKSDVFYGIID; Peptide with targeting and/or antimicrobial activity) |  | G B |  |  |  |  | C. albicans and MRSA and C. jeikeium | Organism, effect (morphology, biofilm and growth disruption) (microorganisms [1]; C. jejuni): C. jejuni (R); Organism, effect (morphology, biofilm and growth disruption) (microorganisms [1]; E. faecalis): E. faecalis (R); Organism, effect (morphology, biofilm and growth disruption) (microorganisms [1]; MRSA): MRSA (C); Organism, effect (morphology, biofilm and growth disruption) (microorganisms [1]; S. epidermidis): S. epidermidis (R); Organism, effect (morphology, biofilm and growth disruption) (microorganisms [1]; S. pneumoniae): S. pneumoniae (C)
19 | PF-444 (MAAKLWEEGKMVYASSASMTKRLKLAMSKV; Peptide with targeting and/or antimicrobial activity) |  | G B |  |  |  |  | M. luteus; also recorded: C. albicans; also recorded: S. pneumoniae; also recorded: C. jeikeium | Organism, effect (morphology, biofilm and growth disruption) (microorganisms [1]; E. coli): E. coli (R); Organism, effect (morphology, biofilm and growth disruption) (microorganisms [1]; E. faecalis): E. faecalis (C); Organism, effect (morphology, biofilm and growth disruption) (microorganisms [1]; MRSA): MRSA (C); Organism, effect (morphology, biofilm and growth disruption) (microorganisms [1]; S. epidermidis): S. epidermidis (C); Organism, effect (morphology, biofilm and growth disruption) (microorganisms [1]; S. pneumoniae): S. pneumoniae (R)
